Patent US11541041B1, “Compounds that interact with the Ras superfamily for the treatment of cancers, inflammatory diseases, Rasopathies, and fibrotic disease” (Shy Therapeutics LLC, priority 2017, dated 2023)
Where two headings read alike, the source gives them in different places.

How the values were obtained:
[1] = molecular target: KRas G12D mutant protein (Homo sapiens (Human), UniProt P01116, G12D); assay: Ras GTP binding domain inhibition assay
Method: The following method was developed as specific assay for KRas G12D mutant protein.
(§1) Buffer-I: • 50 mM Tris, pH 7.5 • 150 mM NaCl (optional) • 1 mM MgCl2 • 1 mM DTT. • KRas G12D mutant protein was expressed as a His-tagged protein. Purified His-KRas G12D protein was diluted in buffer-I to a final concentration of 3-10 μg/ml. • 200 μl of the diluted His-KRas G12D protein was added to a nickel coated 96 well plate and incubated overnight at 4° C. • The next day, wells were washed 3× in 200 μl of Buffer-I. • Then 200 μl of Buffer-I were added to each well in the presence of 1% DMSO. • Tested compounds were added to the protein-coated wells at a concentration of 20 μM, and incubated for 3 hours at room temperature. While performing IC50 measurements a serial dilution of all tested concentrations was prepared.
(§2) Then 22 μl of Cy3-GTP or Cy5-GTP was added to each well. The labeled GTP was incubated for 45 min. at room temperature. • Following GTP incubation, wells were washed 3× in Buffer-I, and 200 μl of Buffer-I were added to each well. • Following washes, the amount of bound labeled-GTP was measured with an Eppendorf AF2200 plate reader.

[2] = molecular target: KRas wild type (Homo sapiens (Human), UniProt P01116); assay: Ras GTP binding domain inhibition assay; details: 20 μM compound
Sequence of KRas wild type (P01116-2 other isoform, or with tags, fused parts or gaps): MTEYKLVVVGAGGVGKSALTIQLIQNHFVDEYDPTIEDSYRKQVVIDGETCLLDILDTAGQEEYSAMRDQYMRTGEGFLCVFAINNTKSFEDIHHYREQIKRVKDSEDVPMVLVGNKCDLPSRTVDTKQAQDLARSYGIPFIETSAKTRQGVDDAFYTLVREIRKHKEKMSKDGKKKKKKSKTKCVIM
Method: as §1, §2
(§3) By substituting KRas G12D mutant protein with KRas G12C mutant, KRas wild type, KRas Q61H mutant, KRas G12D/Q61H double mutant or KRas G12C/Q61H double mutant under the assay conditions described above, KRas G12C mutant KRas wild type, KRas Q61H mutant, KRas G12D/Q61H double mutant and KRas G12C/Q61H double mutant inhibition, respectively, were each determined.

[3] = molecular target: KRas G12C mutant (Homo sapiens (Human), UniProt P01116, G12C); assay: Ras GTP binding domain inhibition assay; details: 20 μM compound
Sequence of KRas G12C mutant (P01116-2 other isoform, or with tags, fused parts or gaps G12C): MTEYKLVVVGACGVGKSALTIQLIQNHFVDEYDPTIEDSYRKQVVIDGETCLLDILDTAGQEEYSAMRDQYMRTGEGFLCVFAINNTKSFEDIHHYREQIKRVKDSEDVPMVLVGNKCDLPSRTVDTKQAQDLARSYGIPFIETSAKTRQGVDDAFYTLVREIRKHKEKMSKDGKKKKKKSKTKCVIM
Method: as §1, §2, §3

[4] = molecular target: KRas G12D/Q61H double mutant (Homo sapiens (Human), UniProt P01116, G12D/Q61H); assay: Ras GTP binding domain inhibition assay
Sequence of KRas G12D/Q61H double mutant (P01116-2 other isoform, or with tags, fused parts or gaps G12D/Q61H): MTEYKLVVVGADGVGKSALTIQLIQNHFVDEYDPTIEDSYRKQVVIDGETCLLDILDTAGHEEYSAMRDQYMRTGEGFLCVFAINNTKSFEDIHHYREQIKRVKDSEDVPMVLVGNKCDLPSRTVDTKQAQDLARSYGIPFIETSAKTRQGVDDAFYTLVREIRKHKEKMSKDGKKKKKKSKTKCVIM
Method: as §1, §2, §3

[5] = molecular target: Rac-1 (Homo sapiens (Human), UniProt P63000); assay: Rac and Rho inhibition assay; format: binding; details: read-out: Rac-1 % Inh.
Method: as §1, §2
(§4) By substituting KRas G12D mutant protein with either Rac-1 or Rho-A under the assay conditions described in Example 5, Rac-1 and Rho-A inhibition, respectively, were each determined.

[6] = molecular target: Rho-A (Homo sapiens (Human), UniProt P61586); assay: Rac and Rho inhibition assay; format: binding; details: read-out: Rho-A % Inh.
Sequence of Rho-A (P61586 whole entry): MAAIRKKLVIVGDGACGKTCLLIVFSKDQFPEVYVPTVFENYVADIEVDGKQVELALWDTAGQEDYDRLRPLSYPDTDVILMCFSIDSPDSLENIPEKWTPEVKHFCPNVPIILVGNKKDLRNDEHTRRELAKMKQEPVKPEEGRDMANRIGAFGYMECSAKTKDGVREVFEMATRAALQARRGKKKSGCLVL
Method: as §1, §2, §4

[7] = test system: MIA-PACA2 pancreatic cancer cell lines; assay: Cell proliferation assay (CellTiter 96 AQueous One); format: cell-based; details: Homo sapiens, MIA PaCa-2; for inhibition at 30 µM: MIA-PACA2
Method: (§5) Cell lines: Tumor-derived pancreatic cancer cell lines MIA-PACA2 were purchased from ATCC and grown in complete DMEM-High Glucose medium supplemented with penicillin (100 U/mL), streptomycin (100 μg/mL), and 10% heat-inactivated FBS at 37° C. in a humidified incubator with 5% CO2.
Method: Cells are plated at 1000 cells/well density in 96-wells plate, starved ON, and the next day tested small molecules are added to the cells in the final concentration of 30 μM with 0.3% DMSO 3 hours prior to 10% FBS addition. After serum addition cells are incubated for 6 days at 37° C. in a humidified incubator with 5% CO2. For IC50 value determination, serial dilutions of compounds were added to cells under the same conditions.
Assay: At the end of the incubation period, cell cultures are tested using the CellTiter 96® AQueous One Solution Cell Proliferation Assay kit (Promega Corporation, Madison, Wis.) according to the manufacturer specifications. Briefly, assay is performed by adding 20 μl of the CellTiter 96 Aqueous One Solution Reagent directly to culture wells, followed by for 1-4 hours incubation at 37° C. in a humidified incubator with 5% CO2. At the end of incubation time, absorbance at 492 nm is recorded with the 96-well plate reader Eppendorf AF2200, and degree of small molecule-dependent proliferation inhibition is calculated from raw data assuming No Serum cells value as 100%.

[8] = molecular target: KRas Q61H mutant (Homo sapiens (Human), UniProt P01116, Q61H); assay: Ras GTP binding domain inhibition assay; details: 20 μM compound
Sequence of KRas Q61H mutant (P01116-2 other isoform, or with tags, fused parts or gaps Q61H): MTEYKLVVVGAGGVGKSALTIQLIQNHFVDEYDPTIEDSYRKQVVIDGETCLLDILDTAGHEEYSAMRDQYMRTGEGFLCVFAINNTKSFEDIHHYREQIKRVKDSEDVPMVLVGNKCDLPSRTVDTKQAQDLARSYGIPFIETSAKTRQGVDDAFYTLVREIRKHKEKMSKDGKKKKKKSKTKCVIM
Method: as §1, §2, §3

[9] = molecular target: KRas G12C/Q61H double mutant (Homo sapiens (Human), UniProt P01116, G12C/Q61H); assay: Ras GTP binding domain inhibition assay; details: 20 μM compound
Sequence of KRas G12C/Q61H double mutant (P01116-2 other isoform, or with tags, fused parts or gaps G12C/Q61H): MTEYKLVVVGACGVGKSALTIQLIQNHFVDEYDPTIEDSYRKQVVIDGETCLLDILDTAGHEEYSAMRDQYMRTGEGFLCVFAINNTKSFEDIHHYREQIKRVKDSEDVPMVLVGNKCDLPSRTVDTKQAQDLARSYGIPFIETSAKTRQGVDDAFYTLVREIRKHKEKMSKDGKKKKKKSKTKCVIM
Method: as §1, §2, §3

[10] = test system: MAPK phosphorylation in PANC-1 pancreatic cancer cell line; assay: MAPK cell-based phosphorylation assay (cell-direct ELISA, EGF-stimulated); details: Homo sapiens
Method: Cell lines: Tumor-derived pancreatic cancer cell lines PANC-1 were purchased from ATCC and were maintained according to ATCC recommendation.
Method: Cells were plated at 7500 cells/well density in 96-wells plate, starved over night, and the small molecules to be tested were added to the cells in the final concentration of 30 μM with 0.3% DMSO for 6 hours incubation at 37° C. For IC50 value determination, serial dilutions of compounds were added to cells under the same conditions. Next, cells were stimulated with 1.5 ng/ml EGF for 15 min. followed by cell fixation with 4% Formaldehyde in PBS at RT for 20 min. Phosphorylation level of MAPK was determined by Cell-direct ELISA.
Cell-direct ELISA: For each well, cells were permeabilized with PBS-Triton 0.1%, quenched with H2O2 0.6% in PBS-Triton 0.1%, and probed with anti-phospho-MAPK antibodies (R&D Systems) followed by HRP-conjugated secondary antibody (Jackson Immunoresearch, West Grove, Pa.). Next, a solution 50 μM of the fluorescent substrate AmpliFlu Red (Sigma) was added and incubated at RT for 20 min. At the end of the incubation time, fluorescence was measured at 595 nm on a microplate reader (AF2200; Eppendorf, Inc., Hamburg, Germany).

[11] = test system: MIA-PACA2 pancreatic cancer cell lines; assay: Cell proliferation assay, alternate assay conditions (DAPI staining); format: cell-based; details: Homo sapiens, MIA PaCa-2; * = tested at 10 μM, alternate conditions, MIA-PACA2
Method: as §5
Method: Cells are plated at 4000 cells/well density in 96-wells plate. The next day tested small molecules are added to the cells in the final concentration of 10 μM in the presence of 0.3% DMSO and 10% FBS. After small molecules addition, cells are incubated for 4 days at 37° C. in a humidified incubator with 5% CO2. For IC50 value determination, serial dilutions of compounds were added to cells under the same conditions.
Assay: At the end of the incubation period, cell cultures are fixed with a 50-50 mixture (v/v) acetone-methanol for 10 minutes at −20° C., followed by rehydration in PBS for 10 minutes at room temperature. After rehydration, cells are stained with DAPI (1 μg/ml) in PBS for 10 minutes at room temperature, followed by 3 washes with PBS. After staining, DAPI fluorescence is recorded (358 nm excitation/461 nm emission) with the 96-well plate reader Molecular Devices Spectramax M3; degree of small mole-cule-dependent proliferation inhibition is calculated from raw data assuming No Serum cells value as 100%.

[12] = 20 μM compound, read-out: % Inhibition at 20 μM, KRas G12D
[13] = 20 μM compound, read-out: % Inhibition at 20 μM, KRas G12D Q61H
[14] = at 20 μM, read-out: KRas G12D % Inh.

Sequence of KRas G12D mutant protein (P01116-2 other isoform, or with tags, fused parts or gaps G12D): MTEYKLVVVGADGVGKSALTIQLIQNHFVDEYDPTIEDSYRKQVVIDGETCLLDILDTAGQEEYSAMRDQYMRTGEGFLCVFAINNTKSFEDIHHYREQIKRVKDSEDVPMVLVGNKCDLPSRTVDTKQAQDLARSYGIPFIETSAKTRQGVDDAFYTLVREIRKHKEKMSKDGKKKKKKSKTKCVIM

## Cc1cccc(-c2c(C)sc3c(O)nc(-c4nccn4C)nc23)c1
[1]; [12]
  inhibition at 20 µM: 1 to 25%
[2]
  inhibition at 20 µM: 1 to 25%
[3]
  inhibition at 20 µM: 1 to 25%

## O=C(CCCc1cccnc1)N1CCCc2c(O)nc(C3C=CC=CN3)nc21 (centres unmarked)
[1]; [12]
  inhibition at 20 µM: 51 to 75%
[4]; [13]
  inhibition at 20 µM: 51 to 75%
[2]
  inhibition at 20 µM: 25 to 50%
[3]
  inhibition at 20 µM: 51 to 75%

## Nc1nc(-c2ccccn2)nc2c(CC3CCNCC3)csc12
[1]; [14]
  inhibition at 20 µM: 51 to 75%
[5]
  inhibition at 20 µM: 51 to 75%
[6]
  inhibition at 20 µM: 76 to 100%
[4]; at 20 μM, read-out: KRas G12D Q61H % Inh.
  inhibition at 20 µM: 51 to 75%

## COCCOc1nc(-c2ccncn2)nc2sc(-c3ccccc3)c(-c3ccccc3)c12
[1]; [12]
  inhibition at 20 µM: 0%
[2]
  inhibition at 20 µM: 1 to 25%
[3]
  inhibition at 20 µM: 1 to 25%

## O=C(NCCc1cnc(O)nc1)c1csc2nc(-c3ccccn3)nc(N3CCSCC3)c12 [drawing 1764]
[7]
  inhibition at 30 µM: 1 to 25%

## Nc1nc(-c2ccccn2)nc2c(CC3CNC3)csc12
[4]; [13]
  inhibition at 20 µM: 25 to 50%
[8]
  inhibition at 20 µM: 51 to 75%
[9]
  inhibition at 20 µM: 51 to 75%

## Cc1ccc(-c2csc3c(O)nc(-c4nccn4C)nc23)c(F)c1
[1]; [12]
  inhibition at 20 µM: 25 to 50%
[2]
  inhibition at 20 µM: 1 to 25%
[3]
  inhibition at 20 µM: 1 to 25%

## O=C(Nc1nnc(-c2ccccc2)[nH]1)C1CCCC1
[10]
  inhibition at 30 µM: 1 to 25%

## COc1cncc(CCNC(=O)c2csc3nc(-c4ccccn4)nc(N4CCOCC4)c23)c1
[7]
  inhibition at 30 µM: 51 to 75%

## Oc1nc(-c2ccccn2)nc2c(-c3ccccc3)csc12
[10]; * = tested at 10 μM
  inhibition at 10 µM: 25 to 50%

## COCCNc1nc(-c2nccn2C)nc2sc(-c3ccccc3)c(-c3ccccc3)c12 [drawing 3568]
[2]
  % Inhibition at 20 μM, KRas wild type: A (A = 1-25% inhibition)
[3]
  % Inhibition at 20 μM, KRas G12C: C (C = 51-75% inhibition)
[8]
  inhibition at 20 µM: 51 to 75%
[9]
  inhibition at 20 µM: 51 to 75%

## COCCCCNC(=O)c1csc2nc(-c3ccccn3)nc(N3CCSCC3)c12
[7]
  inhibition at 30 µM: 1 to 25%

## Nc1nc(-c2ccccn2)nc2c(-c3ccccn3)csc12
[7]
  inhibition at 30 µM: 76 to 100%
[7]; MIA-PACA2 proliferation, compound tested under both conditions, IC50 assay conditions not specified
  IC50: > 1 µM
[11]
  inhibition at 10 µM: 76 to 100%

## Cc1nc(-c2cn(C)cn2)nc2sc(-c3ccc(CNC(=O)OC(C)(C)C)cc3)c(-c3ccccc3)c12
[4]; [13]
  inhibition at 20 µM: 1 to 25%
[8]
  inhibition at 20 µM: 1 to 25%
[9]
  inhibition at 20 µM: 1 to 25%

## COc1ccc(CCNC(=O)c2csc3nc(-c4ccccn4)nc(N4CCSCC4)c23)cn1 [drawing 1763]
[7]
  inhibition at 30 µM: 51 to 75%

## Nc1nc(-c2ccccn2)nc2c(C(=O)N3CC4CC3CN4c3ccccc3)csc12 (centres unmarked)
[7]
  inhibition at 30 µM: 76 to 100%

## COC(=O)c1c(C)sc2c(O)nc(-c3ccccn3)nc12
[8]
  % Inhibition at 20 μM, KRas Q61H: D (D = 76-100% inhibition)

## Nc1nc(-c2ccccn2)nc2c(C3CC3)csc12
[1]; [12]
  inhibition at 20 µM: 51 to 75%
[4]; [13]
  inhibition at 20 µM: 25 to 50%
[2]
  inhibition at 20 µM: 25 to 50%
[3]
  inhibition at 20 µM: 25 to 50%
[8]
  inhibition at 20 µM: 25 to 50%
[9]
  inhibition at 20 µM: 1 to 25%

## O=C(Nc1nnc(-c2ccccc2)[nH]1)c1ncoc1-c1cccs1
[10]
  inhibition at 30 µM: 25 to 50%

## COCCNc1nc(-c2nccn2C)nc2sc(-c3ccccc3)c(-c3ccccc3)c12 [drawing 3594]
[1]; 20 μM compound
  % Inhibition at 20 μM, KRas G12D: B (B = 25-50% inhibition)
[2]
  % Inhibition at 20 μM, KRas wild type: B (B = 25-50% inhibition)
[3]
  % Inhibition at 20 μM, KRas G12C: A (A = 1-25% inhibition)

## COCCOCCN(CCO)C(=O)c1csc2c(O)nc(-c3ccccn3)nc12
[7]
  inhibition at 30 µM: 1 to 25%

## CC(O)ONc1nc(-c2nccn2C)nc2sc(-c3ccccc3)c(-c3ccccc3)c12 (centres unmarked)
[1]; [14]
  inhibition at 20 µM: 1 to 25%
[5]
  inhibition at 20 µM: 25 to 50%
[6]
  inhibition at 20 µM: 25 to 50%

## O=C(CCc1c[nH]c2ccccc12)Nc1nnc(-c2cccnc2)[nH]1
[10]
  inhibition at 30 µM: 25 to 50%

## Cc1nc(-c2nccn2C)nc2sc(-c3ccccc3)c(-c3ccccc3)c12
[4]; [13]
  inhibition at 20 µM: 1 to 25%
[8]
  inhibition at 20 µM: 1 to 25%
[9]
  inhibition at 20 µM: 1 to 25%
